This note sets out measurements from ChEMBL document CHEMBL5316327, “Design and Synthesis of Orally Active Quinolyl Pyrazinamides as Sigma 2 Receptor Ligands for the Treatment of Pancreatic Cancer” (J Med Chem, 2023).

In data set [1] the target is Sigma non-opioid intracellular receptor 1 (Homo sapiens, UniProt Q99720). The data set can be described thus: Displacement of [3H](+)-pentazocine from human sigma 1 receptor transfected in human HEK293T cells assessed as inhibition constant by radioligand competition binding assay. It is filed as cell-based.
Chain of Sigma non-opioid intracellular receptor 1 (Q99720 whole entry): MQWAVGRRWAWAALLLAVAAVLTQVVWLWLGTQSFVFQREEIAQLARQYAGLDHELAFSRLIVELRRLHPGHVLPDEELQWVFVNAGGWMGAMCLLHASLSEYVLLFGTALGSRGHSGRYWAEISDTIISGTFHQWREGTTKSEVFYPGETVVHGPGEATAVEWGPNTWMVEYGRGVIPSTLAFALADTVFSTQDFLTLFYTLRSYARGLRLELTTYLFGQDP
For data set [2], the target named is Sigma intracellular receptor 2 (Homo sapiens, UniProt Q5BJF2). The data set can be described thus: Displacement of [3H][…]ditolylguanidine from human sigma 2 receptor transfected in human HEK293T cells assessed as inhibition constant by radioligand competition binding assay. It is filed as cell-based.
Chain of Sigma intracellular receptor 2 (Q5BJF2 whole entry): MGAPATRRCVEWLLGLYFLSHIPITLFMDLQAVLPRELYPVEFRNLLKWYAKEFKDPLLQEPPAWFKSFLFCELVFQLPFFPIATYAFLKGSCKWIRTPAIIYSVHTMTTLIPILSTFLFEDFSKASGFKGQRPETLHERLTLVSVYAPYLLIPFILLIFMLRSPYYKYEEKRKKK
A further data set concerns MIA PaCa-2. The data set can be described thus: cells. The conditions noted are these: Homo sapiens, MIA PaCa-2, 72 h.
Data set [3] in a line: Metabolic stability in mouse liver microsomes assessed as half life at 10 uM measured upto 60 mins in presence of NADPH by LC-MS/MS analysis. It is filed as ADME, Microsome. The settings on record: 1 h.
Data set [4] in a line: Metabolic stability in human liver microsomes assessed as half life at 10 uM measured upto 60 mins in presence of NADPH by LC-MS/MS analysis. It is filed as ADME, Microsome. The conditions noted are these: liver microsomes.

SMILES strings stand for the structures.

With `CCN(CC)CCCC(C)Nc1cnc(C(=O)Nc2cc(C(F)(F)F)cc3cccnc23)cn1` (stereo not given), the Ki in data set [1] was found to be 385 nM; in data set [2] it was 155 nM. In addition, the IC50 with MIA PaCa-2 stood at 4900 nM.

In the data set with MIA PaCa-2, `CCCNc1cnc(C(=O)Nc2cc(F)cc3cccnc23)cn1` displayed an IC50 of 2600 nM.

For the compound `CN(C)CCNc1cnc(C(=O)Nc2cc(F)cc3cccnc23)cn1`, the figures for the Ki in data set [1] and in data set [2] were 627 nM and 471 nM, respectively. The compound also returned an IC50 in the data set with MIA PaCa-2 of 1400 nM.

With `CCN(CC)CCCC(C)Nc1cnc(C(=O)Nc2ccc(OC)c3cccnc23)cn1` (stereo not given), the Ki in data set [1] came to 317 nM; in data set [2], 40 nM. The compound also showed an IC50 with MIA PaCa-2 of 6800 nM.

For `CCN(CC)CCCC(C)Nc1cnc(C(=O)Nc2cccc3cc(Cl)cnc23)cn1` (stereo not given), the Ki in data set [1] is 155 nM; in data set [2] it was 51 nM. For the same compound, the IC50 in the data set with MIA PaCa-2 was determined as 3800 nM.

Consider `CCN(CC)CCCC(C)Nc1cnc(C(=O)Nc2cc(C3CC3)cc3cccnc23)cn1` (stereo not given), for which the Ki in data set [1] stood at 71 nM; in data set [2], 27 nM. Half-maximal inhibition in the data set on MIA PaCa-2 (IC50) required 3000 nM.

Regarding `O=C(Nc1cc(F)cc2cccnc12)c1cnc(NS(=O)(=O)CCC(F)(F)F)cn1`, in the data set on MIA PaCa-2, the IC50 was above 30000 nM.

Regarding `CCN(CC)CCCC(C)Nc1cnc(C(=O)Nc2cccc3ccc(OC)nc23)cn1` (stereo not given), the Ki in data set [1] worked out at 67 nM; in data set [2], 13 nM. In addition, the t1/2 in data set [3] is given as 54 min. For the same compound, in data set [4], the half-life at 10 µM was above 60 min. The same compound displayed an IC50 in the data set on MIA PaCa-2 of 1900 nM.

In the case of `Cc1cc(NC(=O)c2cnc(S(=O)(=O)NCCN(C)C)cn2)c2ncccc2c1`, the Ki in data set [1] was 508 nM; in data set [2], 2150 nM. Further, the t1/2 in data set [3] is on record as 6 min. In addition, the IC50 in the data set with MIA PaCa-2 came out at 600 nM.

On to `CCN(CC)CCCC(C)Nc1cnc(C(=O)Nc2cccc3ccc(Cl)nc23)cn1` (stereo not given), for which the Ki in data set [1] was 83 nM; in data set [2], 12 nM. Moreover, in the data set on MIA PaCa-2, the IC50 came to 4900 nM.

`CCN(CC)CCCC(C)Nc1cnc(CNc2cc(F)cc3cccnc23)cn1` (stereo not given): the Ki came to 1460 nM in data set [1] and 65 nM in data set [2]. In addition, the IC50 in the data set with MIA PaCa-2 is above 30000 nM.

As for `CCN(CC)CCCC(C)Nc1cnc(C(=O)Nc2cc(F)c(Cl)c3cccnc23)cn1` (stereo not given), the figures for the Ki in data set [1] and in data set [2] were 122 nM and 28 nM, respectively. Further, the IC50 in the data set on MIA PaCa-2 is 3900 nM.

As for `CCN(CC)CCCC(C)Nc1cnc(C(=O)Nc2c(C)ccc3cccnc23)cn1` (stereo not given), in data set [2], the Ki was 2660 nM. In addition, in the data set with MIA PaCa-2, the IC50 is above 30000 nM.

Turning to `CCN(CC)CCCC(C)Nc1cnc(C(=O)Nc2cccc3cccnc23)cn1` (stereo not given), the Ki in data set [1] stood at 196 nM; in data set [2], 22 nM. Also, the IC50 in the data set with MIA PaCa-2 was determined as 3700 nM.

For the compound `CN(C)CCOc1cnc(C(=O)Nc2cc(F)cc3cccnc23)cn1`, the figures for the Ki in data set [1] and in data set [2] were 112 nM and 1340 nM, respectively. Also, the IC50 with MIA PaCa-2 stood at 600 nM.

Turning to `CN(C)CCCNc1cnc(C(=O)Nc2cc(F)cc3cccnc23)cn1`, the Ki in data set [1] turned out to be 110 nM; in data set [2] it was 105 nM. In the data set on MIA PaCa-2, this compound registered an IC50 of 2400 nM.

As to `CCN(CC)CCCC(C)Nc1cnc(C(=O)Nc2ccc(C)c3cccnc23)cn1` (stereo not given), the Ki amounted to 398 nM in data set [1] and 42 nM in data set [2]. In the data set with MIA PaCa-2, this compound showed an IC50 of 1700 nM.

Take `CCN(CC)CCCC(C)Nc1cnc(C(=O)Nc2cc(C#N)cc3cccnc23)cn1` (stereo not given): the Ki was determined as 405 nM in data set [1] and 108 nM in data set [2]. For the same compound, the IC50 in the data set on MIA PaCa-2 came out at 10100 nM.

`O=C(CCNc1cnc(C(=O)Nc2cc(F)cc3cccnc23)cn1)NO` came in with an IC50 in the data set on MIA PaCa-2 of 20000 nM.

With `CCN(CC)CCCC(C)Nc1cnc(C(=O)Nc2ccc(Cl)c3ccc(OC)nc23)cn1` (stereo not given), the Ki in data set [1] was found to be 356 nM; in data set [2], 79 nM. In the data set with MIA PaCa-2, the IC50 amounted to 5400 nM.

Consider `CCN(CC)CCCC(C)Nc1cnc(C(=O)Nc2c(OC)ccc3cccnc23)cn1` (stereo not given), for which, in data set [2], the Ki was 1630 nM. In the data set on MIA PaCa-2, the IC50 is above 30000 nM.

On to `CCN(CC)CCCC(C)Nc1cnc(C(=O)Nc2cccc3ccc(C)nc23)cn1` (stereo not given), for which the Ki was 233 nM in data set [1] and 44 nM in data set [2]. Besides, the IC50 in the data set with MIA PaCa-2 turned out to be 9900 nM.

Take `CC(C)CS(=O)(=O)Nc1cnc(C(=O)Nc2cc(F)cc3cccnc23)cn1`: in the data set with MIA PaCa-2, the IC50 is above 30000 nM.

Consider `O=C(Nc1cc(F)cc2cccnc12)c1cnc(NCCN2CCCC2)cn1`, for which the Ki in data set [1] was 208 nM; in data set [2], 165 nM. For the same compound, the IC50 in the data set with MIA PaCa-2 amounted to 2000 nM.

Turning to `CCN(CC)CCCC(C)Nc1cnc(C(=O)Nc2cc(C)c(Cl)c3cccnc23)cn1` (stereo not given), the values for the Ki in data set [1] and in data set [2] were 67 nM and 36 nM, respectively. The compound further yielded an IC50 with MIA PaCa-2 of 3200 nM.

For the compound `CCN(CCO)CCCC(C)Nc1cnc(C(=O)Nc2cc(C)cc3cccnc23)cn1` (stereo not given), the figures for the Ki in data set [1] and in data set [2] were 159 nM and 71 nM, respectively. In addition, the IC50 with MIA PaCa-2 amounted to 9500 nM.

Turning to `O=C(Nc1cc(F)cc2cccnc12)c1cnc(NCCN2CCS(=O)(=O)CC2)cn1`, the figures for the Ki in data set [1] and in data set [2] were 2290 nM and 3770 nM, respectively. The IC50 with MIA PaCa-2 was above 30000 nM.

On to `Cc1cc(NC(=O)c2cnc(OC3CCNCC3)cn2)c2ncccc2c1`, for which the Ki in data set [1] is 336 nM; in data set [2], 134 nM. In the data set with MIA PaCa-2, this compound came in with an IC50 of 6500 nM.

Take `CCN(CC)CCCC(C)Nc1cnc(C(=O)Nc2cc(Cl)cc3cccnc23)cn1` (stereo not given): the Ki in data set [1] is 95 nM; in data set [2], 14 nM. Further, the concentration for half-maximal inhibition (IC50) in the data set on MIA PaCa-2 turned out to be 1800 nM.

In the case of `Cc1cc(NC(=O)c2cnc(N3CCN(CCN)CC3)cn2)c2ncccc2c1`, the Ki in data set [1] was 166 nM; in data set [2] it was 129 nM. In the data set with MIA PaCa-2, this compound registered an IC50 of 7400 nM.

Consider `COCCNc1cnc(C(=O)Nc2cc(F)cc3cccnc23)cn1`, for which, in the data set on MIA PaCa-2, half-maximal inhibition (IC50) required 1200 nM. This counts as single-digit micromolar.

For the compound `CCN(CC)CCCC(C)Nc1cnc(C(=O)Nc2cc(C)cc3cccnc23)cn1` (stereo not given), the Ki in data set [1] was 250 nM; in data set [2] it was 85 nM. Moreover, the t1/2 in data set [3] was 21 min. Also, in the data set on MIA PaCa-2, 1100 nM corresponded to half-maximal inhibition (IC50).

With `CCN(CC)CCCC(C)NCC(=O)Nc1cc(C)cc2cccnc12` (stereo not given), the values for the Ki in data set [1] and in data set [2] were 463 nM and 52 nM, respectively. In the data set on MIA PaCa-2, this compound had a 50% inhibitory concentration (IC50) above 30000 nM.

As to `CCN(CC)CCCC(C)Nc1cnc(C(=O)Nc2cc(Br)cc3cccnc23)cn1` (stereo not given), the Ki in data set [1] is 46 nM; in data set [2], 27 nM. In the data set with MIA PaCa-2, the IC50 was found to be 1600 nM.

As for `Cc1cc(NC(=O)c2cnc(NCCN3CCNCC3)cn2)c2ncccc2c1`, the Ki in data set [1] was 677 nM; in data set [2] it was 400 nM. Also, half-maximal inhibition in the data set with MIA PaCa-2 (IC50) was put at 15600 nM.

`CCN(CC)CCCC(C)Nc1cnc(C(=O)Nc2ccc(OC)c3ccc(OC)nc23)cn1` (stereo not given): the Ki amounted to 132 nM in data set [1] and 70 nM in data set [2]. Also, in the data set with MIA PaCa-2, the IC50 is 2900 nM.

With `CCN(CC)CCCC(C)Nc1cnc(C(=O)Nc2ccc(F)c3cccnc23)cn1` (stereo not given), the Ki in data set [1] came to 212 nM; in data set [2], 18 nM. For the same compound, it took 3000 nM to reach half-maximal inhibition with MIA PaCa-2 (IC50).

For `CCN(CC)CCCC(C)Nc1cnc(C(=O)Nc2cccc3c(Cl)ccnc23)cn1` (stereo not given), the Ki in data set [1] came out at 59 nM; in data set [2], 20 nM. Moreover, 3400 nM corresponded to half-maximal inhibition with MIA PaCa-2 (IC50).

As to `CCN(CC)CCCC(C)Nc1cnc(C(=O)Nc2cccc3cc(C)cnc23)cn1` (stereo not given), the values for the Ki in data set [1] and in data set [2] were 169 nM and 16 nM, respectively. In the data set with MIA PaCa-2, this compound had an IC50 of 2300 nM.

As to `CCN(CC)CCCC(C)Nc1cnc(C(=O)Nc2cc(O)cc3cccnc23)cn1` (stereo not given), the figures for the Ki in data set [1] and in data set [2] were 1270 nM and 458 nM, respectively. The compound also showed an IC50 in the data set on MIA PaCa-2 of 7900 nM.

Consider `CCN(CC)CCCC(C)Nc1cnc(C(=O)Nc2cc(OC)cc3cccnc23)cn1` (stereo not given), for which the results for the Ki in data set [1] and in data set [2] were 137 nM and 13 nM, respectively. Further, in the data set with MIA PaCa-2, the IC50 is 2300 nM.
